pIC50: −log10 of the molar value. Residues, ends and D or L forms follow the SMILES beside them. *: point of attachment. Cbz = O=C(OCc1ccccc1)*
Tested on: not listed separately
Assay: Inhibition of NO production in LPS-stimulated mouse BV-2 cells incubated for 24 hrs by Griess reagent-based assay
Assay type: functional, cell-based
Conditions: BV-2, 24 h

pIC50	SMILES
5.38	C[C@@H]1CC2CC(=O)C3CCCN4CC[C@@H](O)[C@]2(O)C34C1 (stereo partly drawn)
5.38	CC(=O)O[C@@H]1C2C[C@@H](OC(C)=O)C3CCCN4CCC[C@@]2(O)C34C[C@@H]1C (stereo partly drawn)
5.38	C[C@@H]1CC2CC(=O)C3CCCN4CCC[C@@]2(O)C34C1 (stereo partly drawn)
5.38	C[C@H]1CC23C4CCCN2CCCC3[C@H](O)CC4[C@H]1O (stereo partly drawn)
5.38	CC(=O)O[C@@H]1CC2C3CCCN4CCCC1C34C[C@H](C)[C@H]2O (stereo partly drawn)

SMILES	pIC50
C[C@@H]1CC2CC(=O)C3CCCN4CCCC2C34C1 (stereo partly drawn)	5.38

Tested on: RAW264.7
Assay: Inhibition of NO production in LPS-induced mouse RAW264.7 cells
Assay type: functional, cell-based
Conditions: not given

pIC50	SMILES
4.79	C[C@@H]1C[C@@H]2CCCN2[C@H](CC(=O)C[C@H]2N3CCC[C@H]3C[C@@H](C)[C@]2(O)c2ccccc2)[C@H]1c1ccccc1
4.84	C[C@@H]1C[C@@H]2CC[C@@H]3[C@@H](C(=O)C[C@@H]4N5CCCC5C[C@H](C)[C@@]4(O)c4ccccc4)[C@](C)(O)C[C@H](N23)[C@@]1(O)c1ccccc1 (stereo partly drawn)
4.33	C[C@@H]1C[C@H]2[C@@H]3CCC4=CC(=O)C=C[C@]4(C)[C@@]3(F)[C@@H](O)C[C@]2(C)[C@@]1(O)C(=O)CO [DEXAMETHASONE]
4.64	O=C(O)c1cc(C(=O)c2ccco2)n2c1CCC2

SMILES	pIC50
CN1CCc2cc3c(c4c2[C@H]1Cc1c(O)cccc1-4)OCO3	5.86
COC1=C[C@@]23CCN(C)[C@@H](Cc4c(CN5CCc6cc(OC)c(OC)c7c6[C@H]5CC75C=CC(=O)C=C5)cc(OC)c(O)c42)C3=CC1=O	5.86

Tested on: RAW264.7
Assay: Antiinflammatory activity against LPS-stimulated mouse RAW264.7 cells assessed as inhibition of TNF-alpha production incubated for 24 hrs by ELISA analysis relative to control
Assay type: functional
Conditions: not given

SMILES	inhibition (INH) [%]
O=C1C(O)=CC[C@@H]2[C@H]3CCCN4CCC[C@@H](CN12)[C@@H]34	>40
O=c1cccc2n1C[C@@H]1C[C@H]2CN2CCCC[C@@H]12	>40
O=c1cccc2n1C[C@@H]1CCCN3CCC[C@@H]2[C@H]13	>40
O=C1C=CC[C@@H]2[C@H]3CCCN4CCC[C@@H](CN12)[C@@H]34 [SOPHOCARPINE]	>40

Tested on: Mus musculus
Assay: Antiinflammatory activity in carrageenan-induced peritoneal Swiss albino mouse model assessed as decrease in number of leukocyte cells at 100 umol/kg, po pre-treated for 30 mins followed by carrageenan induction and measured after 4 hrs relative to control
Assay type: functional
Set-up: scale not given: the % may be the effect or the level left
Conditions: dose 100 µmol/kg, time 4.5 hrs

SMILES	Activity [%]
COc1ccc2c(c1)c(CC(=O)O)c(C)n2C(=O)c1ccc(Cl)cc1 [INDOMETHACIN]	72.1

Tested on: HEp-2
Assay: Cytotoxicity against human HEp-2 cells assessed as inhibition of cell growth incubated for 48 hrs by MTT assay
Assay type: functional, cell-based
Conditions: HEp-2, 48 h, pooled result: one value given for 7 cell lines, strains, targets or settings

SMILES	pIC50
COc1ccc2c(cc3c4c(cc5c(c42)OCO5)CCN3C)c1O	4.54
COC1=CC(=O)c2cc3c4c(cc(O)c(OC)c4c2C1=O)CCN3C	5.06
COC1=CC(=O)c2cc3c4c(cc(OC)c(OC)c4c2C1=O)CCN3C	4.98

Tested on: RAW264.7
Assay: Inhibition of NO production in LPS-stimulated mouse RAW264.7 cells preincubated with compound for 1 hrs followed by LPS stimulation and measured after 24 hrs by Griess reagent-based assay
Assay type: functional, cell-based
Conditions: not given

pIC50	SMILES
4.50	O=C1NCCc2c1[nH]c1ccc(O)cc21
4.60	O=C1CC[C@H]2c3[nH]c4ccc(O)cc4c3CCN12

Tested on: RAW264.7
Assay: Antiinflammatory activity in mouse RAW264.7 cells assessed as inhibition of LPS-stimulated iNOS activity preincubated with compound for 24 hrs followed by LPS stimulation for 2 hrs and measured 2 hrs after NADPH addition by fluorescence based assay
Assay type: functional, cell-based
Conditions: not given

pIC50	SMILES
6.70	CC(C)C[C@@H](C=O)NC(=O)[C@H](CC(C)C)NC(=O)[C@H](CC(C)C)NC(=O)OCc1ccccc1 [MG-132] (Cbz-Leu-Leu-Leu-aldehyde)

Tested on: not listed separately
Assay: Antiinflammatory activity in rat polymorphonuclear leucocyte cells assessed as inhibition of PAF-induced beta-glucuronidase release at 10 uM relative to control
Assay type: functional
Conditions: not given

SMILES	inhibition at 10 µM [%]
CN1CCc2cc3c(cc2[C@@H]1[C@H]1OC(=O)c2c1ccc1c2OCO1)OCO3	34.8
CN1Cc2cc3c(cc2Cc2ccc4c(c2C1)OCO4)OCO3	39.6
C[C@@H]1C(=O)O[C@H]2C(O)C34[C@H]5C[C@@H](C(C)(C)C)[C@]36[C@@H](OC(=O)[C@@H]6O)O[C@@]4(C(=O)O5)[C@@]12O (stereo partly drawn)	51.3
COC1O[C@H]([C@H]2c3cc4c(cc3CCN2C)OCO4)c2ccc3c(c21)OCO3 (stereo partly drawn)	37.7
CN1CCc2cc3c(cc2[C@@H]1[C@H]1OC(O)c2c1ccc1c2OCO1)OCO3 (stereo partly drawn)	36.5

Tested on: RAW264.7
Assay: Antiinflammatory activity against mouse RAW264.7 cells assessed as inhibition of cell growth
Assay type: functional, cell-based
Conditions: not given

SMILES	pIC50
Cc1ccc(-c2cc(C(F)(F)F)nn2-c2ccc(S(N)(=O)=O)cc2)cc1 [CELECOXIB]	4.46

Tested on: not listed separately
Assay: Inhibition of IL6 production in LPS-stimulated human PBMC cells
Assay type: functional, cell-based
Conditions: not given

pIC50	SMILES
5.08	COc1cc(C)cc2c1[nH]c1ccccc12 [MURRAYAFOLINE A]
5.08	COc1ccc2c(c1)[nH]c1c3c(c(C)cc12)OC(C)(C)C=C3

Target: Prostaglandin G/H synthase 1 (Homo sapiens, UniProt P23219)
Sequence (P23219 whole entry): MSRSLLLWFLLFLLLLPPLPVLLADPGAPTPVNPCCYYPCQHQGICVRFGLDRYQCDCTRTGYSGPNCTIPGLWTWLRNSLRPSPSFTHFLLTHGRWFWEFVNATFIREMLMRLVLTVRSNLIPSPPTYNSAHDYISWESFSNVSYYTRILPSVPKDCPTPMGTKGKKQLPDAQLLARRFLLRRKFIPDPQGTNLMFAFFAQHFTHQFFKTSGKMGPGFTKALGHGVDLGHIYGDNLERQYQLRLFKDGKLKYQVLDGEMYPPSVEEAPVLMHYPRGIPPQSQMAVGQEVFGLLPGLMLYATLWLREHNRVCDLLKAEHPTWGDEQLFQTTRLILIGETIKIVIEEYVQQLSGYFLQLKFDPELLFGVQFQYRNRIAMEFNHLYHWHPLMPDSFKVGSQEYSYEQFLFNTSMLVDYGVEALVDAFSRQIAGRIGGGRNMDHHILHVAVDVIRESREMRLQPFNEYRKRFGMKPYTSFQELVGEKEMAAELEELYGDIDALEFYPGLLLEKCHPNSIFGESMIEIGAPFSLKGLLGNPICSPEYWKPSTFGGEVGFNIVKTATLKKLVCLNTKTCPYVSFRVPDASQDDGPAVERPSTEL
Assay: Inhibition of COX-1 (unknown origin) using arachidonic acid as substrate at 100 uM preincubated for 5 mins followed by substrate addition and measured after 15 mins relative to control
Conditions: time 20.0 min

inhibition [%]	SMILES
> 64	CO[C@H]1[C@@H]2OCOCO[C@H]2[C@H](O[C@@H]2CC(=O)[C@@H]3CCN(Cc4cc5c(cc43)OCO5)C(=O)[C@H]2O)O[C@@H]1C

Tested on: RAW264.7
Assay: Antiinflammatory activity against LPS-stimulated mouse RAW264.7 cells assessed as inhibition of IL-6 production incubated for 24 hrs by ELISA analysis relative to control
Assay type: functional
Conditions: not given

SMILES	inhibition (INH) [%]
O=C1C(O)=CC[C@@H]2[C@H]3CCCN4CCC[C@@H](CN12)[C@@H]34	>40
O=c1cccc2n1C[C@@H]1C[C@H]2CN2CCCC[C@@H]12	>40
O=c1cccc2n1C[C@@H]1CCCN3CCC[C@@H]2[C@H]13	>40
O=C1C=CC[C@@H]2[C@H]3CCCN4CCC[C@@H](CN12)[C@@H]34 [SOPHOCARPINE]	>40

Tested on: not listed separately
Assay: Inhibition of TNF-alpha production in LPS-stimulated human PBMC cells
Assay type: functional, cell-based
Conditions: not given

pIC50	SMILES
5.15	COc1cc(C)cc2c1[nH]c1ccccc12 [MURRAYAFOLINE A]
5.03	COc1ccc2c(c1)[nH]c1c3c(c(C)cc12)OC(C)(C)C=C3
